Test results from US11179397B2, “Imidazopyrimidine derivatives” (Gilead Sciences, Inc., priority 2018, dated 2021).
Read-outs that look alike come from different tables or passages of the source. Blank lines part the entries; values can stand above or below the compound they belong to.

How the values were obtained:
[1] = biological target: SHP-2 full length protein (Homo sapiens (Human), UniProt Q06124); test: SHP-2 biochemical DiFMUP pseudosubstrate-fluorogenic assay; conditions: 0.2 nM SHP-2, 1 μM IRS-1 activator peptide, 50 μM DiFMUP; read-out: SHP2 IC50
How it was run: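 In-house recombinant full-length SHP-2 preincubated 90 min at room temperature with compounds (1:3 series, 10,000–0.005 nM), then DiFMUP substrate added at 50 μM final for 30 min more. Fluorescence normalised to DMSO wells (100%) and IC50 derived by curve fitting.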

[2] = system: NCI-H358 cells; test: NCI-H358 3D tumor spheroid growth inhibition; type: cell-based; conditions: Homo sapiens, NCI-H358, 168 h, read-out: H358 EC50
How it was run: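 Cells seeded at 1000/well in ultra-low-attachment plates at 37 °C, 5% CO2 to form spheroids, then incubated a further 7 days with compounds. Viability by 3D CellTiter Glo luminescence; % inhibition versus DMSO wells, with normalized cellular IC50 reported as EC50.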

[3] = 3D spheroids, 7 days, 3D CellTiter Glo, cellular IC50 designated EC50

Structure (SMILES): C[C@@H]1OCC2(CCN(c3ncc(Sc4ccnc5c(C(=O)O)cccc45)c4nccn34)CC2)[C@@H]1N [Example 110, 4-((5-((3S,4S)-4-amino-3-methyl-2-oxa-8-azaspiro[4.5]decan-8-yl)imidazo[1,2-c]pyrimidin-8-yl)thio)quinoline-8-carboxylic acid]
IC50 [1]: 190 nM | EC50 [2, 3]: 930 nM

Structure (SMILES): N[C@@H]1CCCC12CCN(c1ncc(SC3CCCCC3)c3nccn13)CC2 [Example 79, (R)-8-(8-(cyclohexylthio)imidazo[1,2-c]pyrimidin-5-yl)-8-azaspiro[4.5]decan-1-amine]
IC50 [1]: 5300 nM | EC50 [2, 3]: > 12500 nM

Structure (SMILES): Cc1nc(N2CCC3(CC2)CO[C@@H](C)[C@H]3N)n2ccnc2c1Sc1cccc(Cl)c1Cl [Example 76, (3S,4S)-8-(8-((2,3-dichlorophenyl)thio)-7-methylimidazo[1,2-c]pyrimidin-5-yl)-3-methyl-2-oxa-8-azaspiro[4.5]decan-4-amine]
IC50 [1]: 3.3 nM | EC50 [2, 3]: 59 nM

Structure (SMILES): CCSc1ccccc1Sc1cnc(N2CCC3(CC2)Cc2ccccc2[C@H]3N)n2ccnc12 [Example 142, (S)-1′-(8-((2-(ethylthio)phenyl)thio)imidazo[1,2-c]pyrimidin-5-yl)-1,3-dihydrospiro[indene-2,4′-piperidin]-1-amine]
IC50 [1]: 4 nM | EC50 [2, 3]: 60 nM

Structure (SMILES): Nc1nccc(Sc2cnc(N3CCC4(CC3)Cc3ccccc3[C@H]4N)n3ccnc23)c1Cl [Example 121, (S)-1′-(8-((2-amino-3-chloropyridin-4-yl)thio)imidazo[1,2-c]pyrimidin-5-yl)-1,3-dihydrospiro[indene-2,4′-piperidin]-1 amine]
IC50 [1]: 4.8 nM | EC50 [2]: 4.2 nM

Other lines, results leading:

IC50 [1]: 11 nM | EC50 [2, 3]: 125 nM
Structure (SMILES): N[C@@H]1CCCC12CCN(c1ncc(Sc3ccnc4c3CCCC4)c3nccn13)CC2 [Example 82, (R)-8-(8-((5,6,7,8-tetrahydroquinolin-4-yl)thio)imidazo[1,2-c]pyrimidin-5-yl)-8-azaspiro[4.5]decan-1-amine]

IC50 [1]: 120 nM | EC50 [2, 3]: 1700 nM
Structure (SMILES): CC1(N)CCN(c2ncc(Sc3cccc(Cl)c3Cl)c3nccn23)CC1 [Example 48, 1-(8-((2,3-dichlorophenyl)thio)imidazo[1,2-c]pyrimidin-5-yl)-4-methylpiperidin-4-amine]

IC50 [1]: 4.8 nM | EC50 [2, 3]: 5.5 nM
Structure (SMILES): Nc1nccc(Sc2cnc(N3CCC4(CC3)Cc3ncccc3[C@H]4N)n3ccnc23)c1Cl [Example 147, (S)-1′-(8-((2-amino-3-chloropyridin-4-yl)thio)imidazo[1,2-c]pyrimidin-5-yl)-5,7-dihydrospiro[cyclopenta[b]pyridine-6,4′-piperidin]-5-amine]

IC50 [1]: 47 nM | EC50 [2, 3]: 590 nM
Structure (SMILES): Cc1nc(N2CCC3(CCC[C@H]3N)CC2)n2ccnc2c1-c1cccc2[nH]ccc12 [Example 2, (R)-8-(8-(1H-indol-4-yl)-7-methylimidazo[1,2-c]pyrimidin-5-yl)-8-azaspiro[4.5]decan-1-amine]

IC50 [1]: 90 nM | EC50 [2, 3]: 420 nM
Structure (SMILES): Cc1nc(N2CCC3(CCC[C@H]3N)CC2)n2ccnc2c1-c1sccc1Cl [Example 12, (R)-8-(8-(3-chlorothiophen-2-yl)-7-methylimidazo[1,2-c]pyrimidin-5-yl)-8-azaspiro[4.5]decan-1-amine]

IC50 [1]: 8.4 nM | EC50 [2, 3]: 90 nM
Structure (SMILES): C[C@@H]1OCC2(CCN(c3ncc(Sc4ccnc5ccc(F)cc45)c4nccn34)CC2)[C@@H]1N [Example 115, (3S,4S)-8-(8-((6-fluoroquinolin-4-yl)thio)imidazo[1,2-c]pyrimidin-5-yl)-3-methyl-2-oxa-8-azaspiro[4.5]decan-4-amine]

IC50 [1]: 5.7 nM | EC50 [2, 3]: 57 nM
Structure (SMILES): C[C@@H]1OCC2(CCN(c3ncc(Sc4ccnc5[nH]ccc45)c4nccn34)CC2)[C@@H]1N [Example 130, (3S,4S)-8-(8-((1H-pyrrolo[2,3-b]pyridin-4-yl)thio)imidazo[1,2-c]pyrimidin-5-yl)-3-methyl-2-oxa-8-azaspiro[4.5]decan-4-amine]
